Measured values reported in US10251862B2, “Cosmetic composition containing hydroxy pyranone derivative compound for promoting differentiation of adipocytes” (AMOREPACIFIC CORPORATION, priority 2014, dated 2019).

Columns and labels:
[1] = system: Adiponectin; experiment: Measurement of expression level of adiponectin in human adipose-derived mesenchymal stem cells (ELISA); assay type: cell-based; settings: for effect of increasing adiponectin expression (in words): 60 μM with IDX, day 14, Table 1; for Adiponectin (pg/mL, avg ± S.D.): secreted into culture medium, day 14 of differentiation, together with IDX, sample 60 μM
Protocol: Adiponectin is a representative protein hormone secreted in adipocytes. It is reported that the expression of adiponectin is increased with the differentiation into adipocytes. Accordingly, the amount of adiponectin secreted into a cell culture medium was measured as a marker of promotion of adipocyte differentiation. In order to measure the secreted amount of adiponectin, human adipose-derived mesenchymal stem cells purchased form Lonza, Inc. were gathered on day 14 after they began to differentiate into adipocytes and the amount of adiponectin was quantified using an adiponectin ELISA kit (R&D Systems, Cat. No. DY1065) as follows (Data were normalized to that of the control group). Specifically, after reacting with a capture antibody on a 96-well plate and washing with a washing buffer, the cells were treated with a sample at a concentration of 60 μM and incubated at room temperature for 2 hours. Subsequently, the cells were incubated with a detection antibody, HRP, a substrate solution and a stop solution for the time specified in the protocol, while washing 3 times between each step. After the final incubation, absorbance was measured at 450 nm using a spectrophotometer.

[2] = system: Human adipose-derived mesenchymal stem cells (hAT-MSCs); experiment: Inducement of differentiation of adipose-derived mesenchymal stem cells into adipocytes (Oil Red O staining); assay type: cell-based; settings: day 14
Description: Human adipose-derived mesenchymal stem cells (hAT-MSCs) were purchased form Lonza, Inc. (Walkersville, Md., USA) and cultured according to the instructions of Lonza, Inc. The adipose-derived mesenchymal stem cells were induced to differentiate into adipocytes according to the instructions of Lonza, Inc. except that troglitazone (TRO) was used instead of indomethacin. Specifically, the mesenchymal stem cells were differentiated into adipocytes by adding to a culture of the mesenchymal stem cells […] insulin, 1 µM dexamethasone (DEXA), 0.5 mM isobutylmethylxanthine (IBMX) and […] TRO. To a test group, the compound of Example 1 was added to the medium at a concentration of 30 μM when inducing the differentiation into adipocytes. A positive control group was treated with 30 μM glibenclamide together with IDX. On day 14 after the adipose-derived mesenchymal stem cells began to differentiate into adipocytes, the cells were washed with 10 mL of phosphate-buffered saline (PBS) and then fixed for 10 minutes using a 10% formalin/PBS solution (0.2 mL/cm^2). The fixed cells were washed once with a 60% isopropanol solution (0.5 mL/cm^2) and lipid bodies in the adipocytes were stained for 10 minutes with Oil Red O dissolved in 60% isopropanol (0.2 mL/cm^2). Then, after staining again with hematoxylin to visualize nuclei, the cells were observed under a microscope.

| SMILES | effect of increasing adiponectin expression (in words) [1] | Adiponectin (pg/mL, avg ± S.D.) [1] [pg/mL] | differentiation into adipocytes as compared to treatment with IDX only ([2]; 30 μM added to medium when inducing differentiation, Oil Red O staining, microscope (FIG. 1)) | number of the stained cells compared with glibenclamide as positive control ([2]; 30 μM, Oil Red O staining (FIG. 1)) |
| --- | --- | --- | --- | --- |
| O=C(/C=C/c1ccc2c(c1)OCO2)OCc1cc(=O)c(O)co1 [Example 1, (2E)-(5-hydroxy-4-oxo-4H-pyran-2-yl)methyl 3-(benzo[d][1,3]dioxo-6-yl)acrylate] | increased the expression of adiponectin | 1435 ± 113 | increased differentiation into adipocytes | slightly less |
| COc1ccc(Cl)cc1C(=O)NCCc1ccc(S(=O)(=O)NC(=O)NC2CCCCC2)cc1 [glibenclamide, reference compound] |  | 1832 ± 110 |  |  |
| O=C(/C=C/c1ccc2c(c1)OCCO2)OCc1cc(=O)c(O)co1 [Example 2, (2E)-(5-hydroxy-4-oxo-4H-pyran-2-yl)methyl 3-(2,3-dihydroxybenzo[b][1,4]dioxo-7-yl)acrylate] | increased the expression of adiponectin | 1300 ± 140 |  |  |
| O=c1cc(CO)occ1O [kojic acid, reference compound] | did not show an effect of increasing adiponectin expression | 312 ± 103 |  |  |
